Common to all, as to experiment: NCI-60 cell line screen, 48 h
Assay [1] deals with UACC-62 melanoma.
Assay [2] deals with OVCAR-8 ovarian.
The test system of assay [3] is SK-MEL-5 melanoma.
Assay [4] relates to HOP-62 NSCLC.
Assay [5] relates to BT-549 breast.
In assay [6] the test system is MOLT-4 leukemia.
For assay [7], the system named is CCRF-CEM leukemia.
The subject of assay [8] is HCT-15 colon.
Assay [9] deals with LOX IMVI melanoma.
Assay [10] has as its system MCF7 breast.
Assay [11] relates to A498 renal.

“And” between values parts separate entries of the source, which are not always exact repeats. Identical values can stand only once.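 Briefly, cells in 96-well plates were exposed to five compound concentrations for 48 h, and endpoints were estimated by linear interpolation. TGI denotes the concentration required for complete inhibition of growth.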 Bounds are passed on as bounds.

For `COC(=O)C1=C(C)NC(C)=C([N+](=O)[O-])C1c1cccc(NO)c1` (configuration not stated), the TGI is above 31.6 µM in assay [1]; 37.5 µM in [2]; 15 µM in assay [3]; above 100 µM in [4]; 16.4 µM in assay [5]; above 26 µM in [6]. Besides, the TGI in assay [7] is above 22.9 µM; in assay [8], 9.77 µM; in assay [9], 15.5 µM; in assay [10], 27.2 µM; in assay [11] it was 70 µM.

Take `O=C1c2ccccc2C(=O)N1c1ccc(OCCN2CCCCC2)cc1`: the TGI in assay [1], in [2], in assay [3], in assay [4], in assay [5] and in [6] was above 100 µM each time. In addition, the TGI in assay [7], in assay [8], in assay [9], in assay [10] and in assay [11] was above 100 µM each time.

For the molecule `CC(Cc1ccc(O)c(O)c1)C(C)Cc1ccc(O)c(O)c1` (configuration not stated), the TGI in [1] is 32.8 µM; in assay [2], 33.6 µM; in [3], 32.9 µM; in [4], 34.1 µM; in assay [5], 26.8 µM; in assay [6] it was above 62.5 µM. Also, the TGI in [7] was 19.3 µM; in [8], above 60.8 µM; in [9], 38.8 µM; in assay [10], 41.8 µM; in assay [11], 90.1 µM.

Regarding `C#CCOC(=O)c1ccccc1OC(C)=O`, the TGI in [1], in assay [2], in assay [3], in [4], in assay [5] and in assay [6] was above 100 µM throughout. For the same molecule, the TGI in [7], in assay [8], in assay [9], in [10] and in [11] was above 100 µM each time.

Regarding `COC(=O)C1(Cc2cccc(Cl)c2)CCCCCCN1C(=O)c1ccccc1` (configuration not stated), the TGI in [1] is 28.5 µM; in [2], 33.4 µM; in assay [3], 26.6 µM; in assay [4], 29 µM; in assay [5], 40.8 µM; in [6], 32.1 µM. Further, the TGI amounted to 31.6 µM in [7]; 25.3 µM in assay [8]; 32.8 µM in [9]; 26.6 µM in [10]; 29 µM in [11].

In the case of `COc1ccc(C)cc1NC(=S)N/N=C/c1ccc(SC)cc1`, the TGI in assay [1] is above 100 µM; in assay [2], above 100 µM; in [3], 51.9 µM; in [4], above 100 µM; in [5], above 100 µM; in [6], above 100 µM. The TGI in assay [7], in assay [8], in assay [9], in [10] and in [11] was above 100 µM throughout.

As for `CSc1c(C#N)c2n(c3ccccc3[n+]2C)c2ncccc12`, the TGI is 38.9 µM in [1]; 73.4 µM in [2]; 30.5 µM in assay [3]; above 100 µM in assay [4]; 70.5 µM in assay [5]; above 100 µM in assay [6]. For the same molecule, the TGI in assay [7] was above 100 µM; in assay [8], above 100 µM; in assay [9], 34.1 µM; in assay [10], 42.8 µM; in [11], 84.6 µM.

As for `CC/C(Cl)=N\OC(=O)Nc1ccc(C#N)cc1`, the TGI is 28.4 µM in [1]; 30.7 µM in assay [2]; 25.9 µM in assay [3]; 39.2 µM in assay [4]; 28.3 µM in assay [5]; 11 µM in assay [6]. The TGI stood at 4.1 µM in assay [7]; 21.7 µM in assay [8]; 15.9 µM in assay [9]; 29.6 µM in assay [10]; 30.3 µM in assay [11].

Take `CCOC(=O)c1nc2cc(C(F)(F)F)ccc2nc1Nc1ccc(Cl)c(Cl)c1`: the TGI in assay [1], in [2], in assay [3], in assay [4], in assay [5] and in assay [6] was above 100 µM each time. For the same molecule, the TGI in assay [7], in assay [8], in assay [9], in [10] and in assay [11] was above 100 µM in each case.

For `Cc1cccc2c1C(=O)C(C1OC(=O)c3ccccc31)C2` (configuration not stated), the TGI in assay [1], in [2], in assay [3], in [4], in assay [5] and in assay [6] was above 100 µM throughout. For the same molecule, the TGI in assay [7], in assay [8], in assay [9], in assay [10] and in [11] was above 100 µM each time.

Turning to `Cc1ccc(C2=Nc3c(N)nc(N)nc3NC(c3ccccc3)C2)cc1` (configuration not stated), the TGI in assay [1] is 22.7 µM and 26 µM; in assay [2] it was 29.3 µM and 28.8 µM; in assay [3], 34.4 µM; in assay [4], 25.5 µM and 22.3 µM; in assay [5], 22 µM and 23.6 µM; in [6] it was 28.3 µM and 97.6 µM. The TGI is 48.5 µM and 96.9 µM in assay [7]; 15.9 µM and 12 µM in [8]; 23 µM and 28 µM in assay [9]; 22.5 µM and 21.5 µM in [10]; 23.6 µM in assay [11].

In the case of `Cc1n[nH]c(=O)n1N=C(c1ccccc1)c1ccccc1`, the TGI in [1], in assay [2], in assay [3], in assay [4], in [5] and in [6] was above 100 µM in each case. Further, the TGI in [7], in [8], in assay [9], in [10] and in assay [11] was above 100 µM each time.

These data come from PubChem BioAssay (NCI).
